Experimental data from US10765664B2, “Treatment of infectious diseases” (CHILDREN'S MEDICAL CENTER CORPORATION, priority 2015, dated 2020).
Read-outs that look alike come from different tables or passages of the source.

Legend:
[1] = system: Zaire ebolavirus GP-pseudotyped lentivirus; experiment: organism not typed; assay type: cell-based
live Ebola virus = assay type: cell-based
H37Rv-mCherry MTb = assay type: cell-based, Mycobacterium tuberculosis; settings: concentration-dependent; 0, 5, 10, 15, or 20 μM NTZ pretreatment
HIV-1Bal/ZsGreen1 = assay type: cell-based; settings: pretreatment with 1 μM NTZ
HIV LTR [2] = assay type: cell-based; settings: for HIV transcriptional activation (LTR-Renilla): NTZ 5 or 10 μM pretreatment
HIV LTR [3] = assay type: cell-based
PKR [4] = experiment: PKR gene transcription in HeLa cells; assay type: cell-based, human
RIG-I = RIG-I gene transcription in HeLa cells; assay type: cell-based, human
HIV = assay type: cell-based; settings: MDM or AM/lymphocyte system; expected
nonreplicating MTb = settings: cited from earlier work
PKR [5] = biological target: PKR (Homo sapiens, UniProt P19525); settings: hepatoma cells; cited from earlier work
MTb = settings: by inhibiting the mTOR pathway; cited from earlier work
[6] = system: MTb-infected THP-1 cells and human monocytes; settings: through inhibition of NQO1; cited from earlier work
X4-tropic HIV = settings: human PBMC, with glucocorticoids; cited from earlier work
influenza = settings: in vivo; cited from earlier work
HCV = settings: added to ribavirin plus pegylated IFN; cited from earlier work
THP-1 cells = experiment: Cellular acidification of THP-1 cells, Lysotracker Red flow cytometry; settings: 24 hrs
IFITM3 = IFITM3 mRNA in THP-1 cells stimulated with cytokines or TLR agonists, real time PCR; assay type: cell-based, human; settings: for IFITM3 mRNA induction: data not shown (Example 3)
[7] = tizoxanide after a 500 mg dose of NTZ; cited from earlier work
[8] = in vivo; cited from earlier work
[9] = in vivo; cited from earlier work; remark: listed apart in the source

Sequence of PKR (Homo sapiens, UniProt P19525) (P19525 whole entry): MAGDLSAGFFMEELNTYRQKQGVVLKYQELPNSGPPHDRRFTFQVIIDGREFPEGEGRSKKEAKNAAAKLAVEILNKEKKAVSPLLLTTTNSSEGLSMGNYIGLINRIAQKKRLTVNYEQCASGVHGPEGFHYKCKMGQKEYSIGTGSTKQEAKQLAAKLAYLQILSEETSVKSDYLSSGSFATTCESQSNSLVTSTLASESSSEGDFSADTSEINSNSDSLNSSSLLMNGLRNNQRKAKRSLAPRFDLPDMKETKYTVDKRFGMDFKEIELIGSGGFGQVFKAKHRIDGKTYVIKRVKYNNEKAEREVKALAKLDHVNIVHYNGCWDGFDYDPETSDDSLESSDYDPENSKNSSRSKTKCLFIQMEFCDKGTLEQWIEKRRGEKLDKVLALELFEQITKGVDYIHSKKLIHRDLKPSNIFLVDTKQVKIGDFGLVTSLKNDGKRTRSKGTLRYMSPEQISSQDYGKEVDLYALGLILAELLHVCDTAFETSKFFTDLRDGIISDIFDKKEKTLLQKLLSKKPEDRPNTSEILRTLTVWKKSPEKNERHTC

**Q.** With CC(=O)Oc1ccccc1C(=O)Nc1ncc([N+](=O)[O-])s1 [NTZ, [2-[(5-nitro-1,3-thiazol-2-yl)carbamoyl]phenyl] ethanoate] as the molecule, how does the “infection by Zaire Ebolavirus GP-pseudotyped lentiviral particles” value [1] read?
**A.** inhibits

**Q.** What about the inhibition at 8 µM ([1]; THP-1, read-out: inhibition of ZE-LV infection) of the same molecule?
**A.** ~40%

**Q.** And the “inhibition of live Ebola virus” value (live Ebola virus)?
**A.** inhibit

**Q.** And the “MTb infection of THP-1 cells” value (H37Rv-mCherry MTb)?
**A.** potently inhibits

**Q.** What about the “HIVBALZsGreen1 infection of MDM” value (HIV-1Bal/ZsGreen1) of the same molecule?
**A.** suppresses

**Q.** What about the “activation of the integrated LTR-Renilla reporter gene” value (HIV LTR [2]; MTb infection, not shown) of the same molecule?
**A.** significantly inhibits

**Q.** And the “HIV transcriptional activation (LTR-Renilla)” value (HIV LTR [2]; Sendai virus infection)?
**A.** inhibited

**Q.** What about the “HIV transcriptional activation (LTR-Renilla)” value (HIV LTR [2]; stimulation with TLR2 agonist Pam3Cys) of the same molecule?
**A.** inhibited

**Q.** And the “LTR reactivation (ZsGreen1)” value (HIV LTR [3]; TLR2 agonist Pam3Cys, 10 μM NTZ, 6 hrs)?
**A.** reduces

**Q.** And the “LTR reactivation (ZsGreen1)” value (HIV LTR [3]; direct MTb infection, 6 hours)?
**A.** reduces

**Q.** And the “transcription of PKR gene” value (PKR [4])?
**A.** induce

**Q.** And the “transcription of RIG-I gene” value (RIG-I)?
**A.** induce

**Q.** What about the “MTb augmentation of HIV replication” value (HIV) of the same molecule?
**A.** suppressed

**Q.** What about the “reduction of viable, nonreplicating MTb” value (nonreplicating MTb) of the same molecule?
**A.** over 2 log units

**Q.** And the “autophosphorylation of PKR” value (PKR [5])?
**A.** directly induces

**Q.** And the MTb proliferation (MTb)?
**A.** suppress

**Q.** What about the autophagy [6] of the same molecule?
**A.** promotes autophagy

**Q.** What about the “suppression of X4-tropic HIV replication” value (X4-tropic HIV) of the same molecule?
**A.** synergizes

**Q.** What about the “treatment of uncomplicated influenza” value (influenza) of the same molecule?
**A.** efficacy

**Q.** And the HCV virological response (HCV)?
**A.** significantly improve

**Q.** And the intracellular acidity (THP-1 cells)?
**A.** increased intracellular acidity

**Q.** With IL-1β: recombinant IL-1β as the molecule, how does the “IFITM3 mRNA vs untreated control cells” value (IFITM3; THP-1 cells, by 48 hrs) read?
**A.** significantly elevated

**Q.** For O=C(Nc1ncc([N+](=O)[O-])s1)c1ccccc1O [tizoxanide], which “peak mean plasma concentration” value [7] is on record?
**A.** 26 µM

**Q.** For Pam3Cys, which IFITM3 gene expression (IFITM3; THP-1 cells, TLR agonist 100 ng/ml, 24 and 48 hours) is on record?
**A.** significantly induced

**Q.** With CC(=O)Oc1ccccc1C(=O)Nc1ncc(Cl)s1 [RM-5038] as the molecule, how does the “absorption in the GI tract compared to NTZ” value [8] read?
**A.** better absorbed

**Q.** What about the “tolerability compared to NTZ” value [9] of the same molecule?
**A.** better tolerated

**Q.** With IL-6: recombinant IL-6 as the molecule, how does the IFITM3 transcript levels (IFITM3; THP-1 cells, by 24 hours post-stimulation) read?
**A.** significant increase

**Q.** With IFN-γ: IFN-γ treatment as the molecule, how does the “IFITM3 mRNA induction” value (IFITM3) read?
**A.** strongly induced

**Q.** For MCP-1: MCP-1 cytokine treatment, which “IFITM3 mRNA induction” value (IFITM3) is on record?
**A.** not induced
